In US6680322B2, “Compounds specific to adenosine A1 receptors and uses thereof” (OSI Pharmaceuticals, Inc., priority 1999, dated 2004):

Legend:
[1] = molecular target: T1, human A3 receptor subtype (Homo sapiens, UniProt P0DMS8); test: Adenosine 3 receptor competition radioligand binding ([125I]AB-MECA, HEK293 membranes); conditions: Table 13; % activity @ 10 μM (footnote 8)
T1 construct: expressed in transfected cells; host or cells: HEK293
T1 sequence (P0DMS8 1-318): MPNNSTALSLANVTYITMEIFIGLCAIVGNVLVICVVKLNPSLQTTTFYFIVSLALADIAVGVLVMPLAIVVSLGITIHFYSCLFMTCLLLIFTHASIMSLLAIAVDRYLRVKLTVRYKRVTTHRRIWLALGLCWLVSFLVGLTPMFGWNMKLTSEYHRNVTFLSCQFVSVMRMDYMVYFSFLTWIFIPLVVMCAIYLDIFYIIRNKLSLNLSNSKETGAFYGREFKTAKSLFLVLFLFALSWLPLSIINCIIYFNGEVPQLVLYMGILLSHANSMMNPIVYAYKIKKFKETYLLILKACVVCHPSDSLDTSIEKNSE

[2] = molecular target: T2, human A2a receptor subtype (Homo sapiens, UniProt P29274); test: Adenosine 2a receptor subtype competition radioligand binding ([3H]CGS-21680, HEK293 membranes); conditions: Table 13; % activity @ 10 μM (footnote 8)
T2 construct: expressed in transfected cells; host or cells: HEK-293 (Cadus clone #5)

[3] = molecular target: T3, human A1 receptor subtype (Homo sapiens, UniProt P30542)
T3 sequence (P30542 1-326): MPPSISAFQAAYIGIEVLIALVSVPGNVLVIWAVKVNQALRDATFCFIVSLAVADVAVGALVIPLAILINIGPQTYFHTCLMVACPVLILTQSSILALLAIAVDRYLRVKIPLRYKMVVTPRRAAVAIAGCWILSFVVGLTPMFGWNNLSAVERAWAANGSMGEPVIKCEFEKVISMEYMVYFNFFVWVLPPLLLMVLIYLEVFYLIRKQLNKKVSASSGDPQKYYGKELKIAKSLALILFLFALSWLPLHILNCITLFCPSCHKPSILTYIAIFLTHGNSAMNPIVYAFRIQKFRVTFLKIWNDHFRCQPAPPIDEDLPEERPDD

[4] = molecular target: T4, human A1 adenosine receptor (Homo sapiens, UniProt P30542); conditions: cited from earlier work
T4 sequence (P30542 1-326): T3 sequence (P30542 1-326)

T2 sequence (P29274 whole entry): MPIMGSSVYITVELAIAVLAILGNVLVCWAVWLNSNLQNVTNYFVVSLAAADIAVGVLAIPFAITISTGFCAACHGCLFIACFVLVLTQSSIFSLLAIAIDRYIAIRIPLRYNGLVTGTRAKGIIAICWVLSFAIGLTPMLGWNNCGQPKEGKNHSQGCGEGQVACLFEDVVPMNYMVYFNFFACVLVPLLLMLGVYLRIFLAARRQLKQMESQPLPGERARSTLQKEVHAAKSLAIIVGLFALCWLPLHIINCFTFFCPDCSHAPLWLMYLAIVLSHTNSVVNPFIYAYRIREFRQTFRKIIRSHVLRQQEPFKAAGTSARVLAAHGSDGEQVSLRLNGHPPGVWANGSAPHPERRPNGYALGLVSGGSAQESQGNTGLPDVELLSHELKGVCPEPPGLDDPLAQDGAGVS

| Compound | melting point | other results |
| --- | --- | --- |
| NC(=O)[C@@H]1C[C@H](O)CN1c1nc(-c2ccccc2)nc2[nH]ccc12 [Compound 1606, 4-Hydroxy-1-(2-phenyl-7H-pyrrolo[2,3-d]pyrimidin-4-yl]-pyrrolidine-2-carboxylic Acid Amide] | 268 to 271 °C | – |
| O[C@H]1CC[C@H](Nc2nc(-c3ccncc3)nc3[nH]ccc23)CC1 [Compound 1321] | – | A3 binding, % activity [1]: 54%^8 |
| COCc1cc2c(N3CCCC3C(N)=O)nc(-c3ccccc3)nc2[nH]1 (stereo not shown) [Compound 1605] | 213 to 215 °C | – |
| Cc1[nH]c2nc(-c3ccccc3)nc(NCCNC(=O)C3(N)CC3)c2c1C [Compound 1313] | – | A2a binding, % activity [2]: 65%; A1 binding, % activity ([3]; Table 13, % activity @ 10 μM (footnote 8)): 30% |
| NC(=O)[C@@H]1CCCN1c1nc(-c2ccccc2)nc2[nH]ccc12 [Compound 1602] | 236 to 238 °C | – |
| CC(Cc1ccccc1)Nc1ncnc2c1ncn2[C@@H]1O[C@H](CO)[C@@H](O)[C@H]1O (single isomer, unassigned; (-)) [PIA, (−)-N6-(2-phenylisopropyl)-adenosine] | – | reported affinity [4]: approximately 50 nM |
| O[C@H]1CC[C@H](Nc2nc(-c3ccccc3)nc3[nH]c(CN4CCOCC4)cc23)CC1 [Compound 1503] | – | Ki-A1 (selectivity versus A2a, A2b, A3) ([3]; Table 15): * (at least 10 times more selective than other three subtypes) |
| CNC(=O)NCCCNc1nc(-c2ccccc2)nc2[nH]c(C)c(C)c12 [Compound 1310] | – | A2a binding, % activity [2]: 76% |

Now from value to molecule, other results behind:

| melting point | Compound | other results |
| --- | --- | --- |
| 210 to 220 °C (dec.) | NC(=O)c1cc2c(NC3CCC(O)CC3)nc(-c3ccccc3)nc2[nH]1 (stereo not shown) [Compound 1630, 4-(4-Hydroxy-cyclohexylamino)-2-phenyl-7H-pyrrolo[2,3-d]pyrimidine-6-carboxylic Acid Amide] | – |
| 196 to 197 °C | CC(=O)NCCNc1nc(-c2ccccc2)nc2[nH]c(COc3ccccc3)cc12 [Example 17] | – |
| 220 °C (dec.) | NC(=O)C1CCCN1c1nc(-c2ccccc2)nc2[nH]c(C(=O)O)cc12 (stereo not shown) [Compound 1619, [4-(2-Carbamoylpyrrolidin-1-yl)-2-phenyl-7H-pyrrolo[2,3-d]pyrimidine-6-carboxylic Acid]] | – |
| 225 to 227 °C | COC(=O)c1cc2c(NC3CCC(O)CC3)nc(-c3ccccc3)nc2[nH]1 (stereo not shown) [Compound 1627, 4-(4-Hydroxy-cyclohexylamino)-2-phenyl-7H-pyrrolo[2,3-d]pyrimidine-6-carboxylic Acid Methyl Ester] | – |
